Measured values as given in ChEMBL document CHEMBL1201862, “PubChem BioAssay data set” (2004).
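Five concentrations, 48 hours, 96-well plates. Here, GI50 denotes the concentration required for 50% inhibition of growth.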 Calls of active or inactive are those of the source. Cut-off read from the data, not from the text of the source: active = GI50 up to about 1.1 µM and inactive = higher.

Key:
Assay in all cases: NCI tumour cell line growth inhibition, 48 h
[1] = system: HCC 2998
[2] = system: OVCAR-4
[3] = system: T47D
[4] = system: HOP-62
[5] = system: SR
[6] = system: 786-0
[7] = system: Malme-3M
[8] = system: U-251
[9] = system: KM12
[10] = system: MOLT-4
[11] = system: UACC-257
[12] = system: MDA-MB-231
[13] = system: SNB-19
[14] = system: HT-29
[15] = system: TK-10
[16] = system: BT-549
[17] = system: EKVX
[18] = system: Hs-578T
[19] = system: PC-3

Row | SMILES | GI50 [1] | GI50 [2] | GI50 [3] | GI50 [4] | GI50 [5] | GI50 [6] | GI50 [7] | GI50 [8] | GI50 [9] | GI50 [10] | GI50 [11] | GI50 [12] | GI50 [13] | GI50 [14] | GI50 [15] | GI50 [16] | GI50 [17] | GI50 [18] | GI50 [19]
1 | CN(C)c1ccc([S+]([O-])Nc2ccccc2)cc1 (centres undefined) | 34.6 µM (inactive) | 45 µM (inactive) | 19.1 µM (inactive) | 56 µM (inactive) | 31.6 µM (inactive) | 35.4 µM (inactive) | 49.8 µM (inactive) | 19.3 µM (inactive) | 17.1 µM (inactive) | 53.8 µM (inactive) | 27.3 µM (inactive) | 33.3 µM (inactive) | 60.1 µM (inactive) | 76.4 µM (inactive) | > 100 µM (inactive) | 0.52 µM (active) | 32.8 µM (inactive) | 45 µM (inactive) | 
2 | CCOC(=O)CCC(C(=O)OCC)n1nnc2cc(Nc3c(C)[n+]([O-])c4cc(Cl)ccc4[n+]3[O-])ccc21 (centres undefined) |  | 77.4 µM (inactive) | 47.2 µM (inactive) | 46.8 µM (inactive) |  | 59.2 µM (inactive) | > 100 µM (inactive) | 80.4 µM (inactive) | > 100 µM (inactive) | 49.1 µM (inactive) | 40.1 µM (inactive) |  | > 100 µM (inactive) | 76 µM (inactive) | > 100 µM (inactive) | > 100 µM (inactive) | 14.2 µM (inactive) | > 100 µM (inactive) | > 100 µM (inactive)
3 | COC1(C2c3ccccc3CCN2C(=O)OC(C)(C)C)C(=O)C(c2ccccc2)=C1N(C)C (centres undefined) |  | 46.9 µM (inactive) | 53.7 µM (inactive) | 37 µM (inactive) | 79.3 µM (inactive) | 26.9 µM (inactive) | 35.2 µM (inactive) | 37.2 µM (inactive) | 34.4 µM (inactive) | 43.3 µM (inactive) | 40.6 µM (inactive) |  | 27.5 µM (inactive) | 18.1 µM (inactive) | 48.2 µM (inactive) | 27.9 µM (inactive) | 40.6 µM (inactive) | 32.7 µM (inactive) | 25.2 µM (inactive)
4 | O=C(O)c1ccc(Nc2ccnc3cc(Cl)ccc23)cc1O | 39.6 µM (inactive) | > 100 µM (inactive) | > 100 µM (inactive) | 45.7 µM (inactive) |  | > 100 µM (inactive) | > 100 µM (inactive) | 95.1 µM (inactive) | > 100 µM (inactive) | > 100 µM (inactive) | > 100 µM (inactive) | > 100 µM (inactive) | > 100 µM (inactive) | > 100 µM (inactive) | 61.4 µM (inactive) | > 100 µM (inactive) | > 100 µM (inactive) | > 100 µM (inactive) | > 100 µM (inactive)
5 | C=C[C@@]1(C)CC[C@@H]2[C@@]3(C1)O[C@H]3CC1[C@](C)(C(=O)OC)CCC[C@@]12C (some centres undefined) | 17.3 µM (inactive) | 38.5 µM (inactive) | 20.7 µM (inactive) | 20 µM (inactive) |  | 20.3 µM (inactive) | 17.7 µM (inactive) | 21.1 µM (inactive) | 35.6 µM (inactive) | 20 µM (inactive) | 19.3 µM (inactive) | 23 µM (inactive) | 16.3 µM (inactive) | 14.1 µM (inactive) | 19.1 µM (inactive) | 25.5 µM (inactive) | 20.7 µM (inactive) | 20 µM (inactive) | 30.4 µM (inactive)
6 | COc1cc2c3c(n(C)c(=O)c2cc1OC)-c1cc2c(cc1/C3=C\CCCCl)OCO2 | 23 µM (inactive) | 49.7 µM (inactive) | 30.3 µM (inactive) |  |  | 16.7 µM (inactive) | > 100 µM (inactive) | 25.2 µM (inactive) | 23.8 µM (inactive) | 6.68 µM (inactive) | 36.9 µM (inactive) | 27.3 µM (inactive) | 44.9 µM (inactive) | 39.7 µM (inactive) | 20.1 µM (inactive) | 20.5 µM (inactive) | 54.6 µM (inactive) | 47.4 µM (inactive) | > 100 µM (inactive)
